Laboratory results published in publication PMC5538626, “Structural and functional analysis of the GABARAP interaction motif (GIM)” (EMBO Reports, 2017).
Entries after “also recorded” stand apart in the source; their conditions may differ. Ends that are not written are not given here.

What was measured:
[1] = tested on: LC3 and GABARAP families; settings: cited from earlier work
Excerpt: However, despite the ever‐increasing number of LC3/GABARAP interaction partners identified and perhaps the over‐reliance on LC3B as the main marker of autophagosomes, there is now emerging distinct roles of each LC3 and GABARAP subfamily. For example, both LC3 and GABARAP families are essential for autophagy flux 29; however, LC3s were reported to be involved in phagophore extension and GABARAPs required for autophagosome closure 29. Moreover, GABARAP can activate ULK1 complex to initiate autophagy, irrespective of its conjugation status 28. Indeed, this is also reflected in C. elegans homolog ...

[2] = tested on: 6xHis-tagged LC3B and 6xHis-tagged GABARAP; experiment: Peptide array, preference GABARAP versus LC3B (absorbance ratio); type: binding, human; settings: absorbance GABARAP/LC3B or LC3B/GABARAP, cut-off 1.5-fold, mean of n = 3, Figs 1A, EV1B and C
Excerpt: A high number of autophagy receptors or adaptor structures have been reported, yet the basis for their selective interaction with individual members of the ATG8 family is not well understood. We speculated whether the LIR motif alone is able to confer selectivity towards a mATG8 subfamily and whether we could derive a subfamily consensus motif from analysis of known mATG8 interaction partners. To address this question, we screened an array of peptides (presented in Fig EV1A and described in Materials and Methods) with the LIR sequences of 30 known and validated autophagy receptors and adaptors (Table 1) against all six human mATG8s for binding (Figs 1A and EV1B and C). In brief, biotinylated peptides were immobilized on streptavidin‐coated 96‐well plates and incubated with His6‐tagged mATG8 proteins. After washing steps, peptide‐bound mATG8 was detected in an ELISA reader using anti‐His antibodies directly conjugated to HRP (horse radish peroxidase; Fig EV1A).
Dashed red line depicts 1.5‐fold change cut‐off.
Due to the wide range of affinities of various LIR sequences towards the LC3/GABARAP proteins, we have normalized our results by dividing values for LC3B interaction by the corresponding value for interaction with GABARAP (Fig 1A, purple bars) and vice versa (Fig 1A, blue bars) to highlight the potential subfamily selectivity of each LIR sequence tested. We classified ratios greater than 1.5‐fold as an indication of a preferential interaction towards that particular LC3 or GABARAP family member. […] Using this information, we generated a sequence plot (Fig 1B) to ascertain whether there were any common sequence features of the GABARAP‐specific interaction proteins. In addition to the 12 sequences identified in this experiment as preferential GABARAP subfamily interactors, we also included known GABARAP interactors that were not included in our screen (ALFY and KBTBD7). […] The previously identified PLEKHM1‐LIR 19 has a high degree of similarity to this sequence. […] However, it is unclear whether this is the case in vivo.
Biotinylated peptides (JPT, Germany) were immobilized on streptavidin‐coated 96‐well plates (#436014; Thermo Scientific) in 100 μl PBS containing 0.1% Tween‐20 (PT) and 1% BSA (PTB) overnight on a shaker at 8°C. After three washing steps with 200 μl PT, 100 μl of 1 μM HIS6‐tagged mATG fusion proteins isolated from E. coli in PTB was incubated with the immobilized peptides for 1 h at 8°C. After three washing steps with 200 μl PT, HIS6‐ATG8 bound to peptides was detected after 1‐h incubation with anti‐HIS‐HRP antibody (JP‐A00612; Genscript; 1:5,000 in 100 μl PTB) with the help of TMB substrate Reagent Set (BD OptEIA; 75 μl). The reaction (blue coloration) was stopped by addition of 60 μl 1 M H3PO4. Samples were analysed on a Synergy H1 ELISA reader from BioTek at 450 nm.

[3] = tested on: all six mATG8 proteins; experiment: Peptide array (ELISA), all six mATG8s; settings: 450 nm, Fig 3E, n = 4
[4] = tested on: 6xHis-tagged LC3B; experiment: Peptide array (ELISA), LC3B; settings: mean ± SEM n = 5, Fig 4B
[5] = target: T1, LC3B (Homo sapiens, UniProt Q9GZQ8); experiment: ITC titration of PLEKHM1-LIR peptides into LC3B; type: binding; settings: ITC, 25°C, pH 7.0; 0.4 mM peptide into 0.020 mM protein; one-site model
T1 construct: modified Ub-leader (ubiquitin fusion leader) (N); made in house; host or cells: E. coli NEB T7 Express
Experimental: The genes for the truncated LC3A^2–121, LC3C^8–125, GABARAP^2–117 and GABARAP‐L1^2–117 proteins were cloned into pET30ΔSE vector between the BamHI and XhoI sites using previously established protocols 38. The chimeric constructs of the PLEKHM1‐LIR attached to the LC3A, GABARAP and GABARAP‐L1 proteins were prepared by inserting the oligonucleotide sequence corresponding to the PLEKHM1‐LIR peptide (P^629[…]^638) and glycine–serine linker into the BamHI site of the pET30ΔSE vector, placing the PLEKHM1‐LIR at the N‐terminal of the mature chimeric protein (similar to 31, 38). For the expression of human LC3 and GABARAP proteins for ITC and NMR experiments, plasmids with appropriate modified Ub‐leaders in pET vectors were used 39. Gene, encoding PLEKHM1‐LIR peptide, was ordered as synthetic oligonucleotides (Eurofins Genomics GmbH) and cloned into the pET39_Ub63_ vector 39 by NcoI–BamHI restriction sites. After TEV cleavage, the resulting peptide has the amino acid sequence GAMG‐P^629[…]^642, where the first four residues (GAMG) are the cloning artefact.
The chimeric constructs were expressed as a His‐tag fusion protein in E. coli BL21(DE3) cells. The cells were induced with 0.3 mM IPTG at OD600 0.6 for 16 h at 26°C. The cell pellets were lysed using mechanical sonication in lysis buffer (20 mM Tris–HCl pH 9.0, 100 mM NaCl, 10 mM imidazole, supplemented with 0.1% Triton X‐100). The proteins were purified using Ni‐NTA beads (GE Healthcare) and the His‐tag was cleaved using thrombin (Invitrogen) at room temperature for 16 h. The last step was gel filtration chromatography using a Superdex S200/300 GL column (GE Healthcare). The proteins were concentrated using spin concentrators (Vivaspin). For ITC and NMR studies, the non‐labelled and stable isotopes labelled LC3 and GABARAP proteins were obtained based on the protocols described elsewhere 30, 39. Here, E. coli NEB T7 Express culture transformed with corresponding plasmids were grown till OD600 nm = 1.0 and protein expression was induced with 0.2 mM IPTG. The cultures were incubated at 25°C for 8–12 h before cell harvesting. Isolation and purification procedures were similar to those reported in Ref. 22, 40. Before experiments, all proteins and peptides were equilibrated with a buffer containing 50 mM Na2HPO4, 100 mM NaCl at pH 7.0, and supplied with 5 mM protease inhibitor cocktail.
The protocol for preparation of non‐labelled and ^13C,^15N‐labelled PLEKHM1‐LIR peptide was slightly modified to achieve highest yield of the peptide. The 50 ml M9 culture was inoculated with NEB T7 cell transformed with pET39_Ub63‐PLEKHM1‐LIR plasmid and grown overnight at 37°. The collected cells were resuspended in 2 l of either LB or M9 media contained 1.5 g ^15N‐labelled NH4Cl and 3.0 g of ^13C‐labelled glucose. The cultures were grown at 37° till A(600 nm) = 0.9 and supplied with 1 mM of IPTG to induce Ub63‐PLEKHM1‐LIR overexpression (3 h at 37°). After that cells were harvested by centrifugation, re‐suspended in buffer contained 50 mM Tris–HCl pH = 7.9, 200 mM NaCl, 5% glycerol, 0.1 mg/ml DNase A and 4 mM protease inhibitor cocktail. After cell lysis by French press, debris was removed by centrifugation and clear supernatant was applied onto the column contained Ni‐NTA Sepharose equilibrated with the loading buffer (50 mM Tris–HCl pH = 7.9, 250 mM NaCl, 1% glycerol and 20 mM imidazole). Elution was performed with 400 mM imidazole in the same buffer. An aliquot of pure Ub63‐PLEKHM1‐LIR fractions was further purified by gel filtration on Superdex75 26 × 60 column for control ITC and analytical size exclusion chromatography experiments, remaining fusion protein was processed with the TEV‐protease and PLEKHM1‐LIR peptide was purified to 95% purity by reverse Ni‐NTA chromatography and followed gel filtration on Superdex75 26 × 60 column. Peak maximum of peptide was detected at […] (void volume 115 ml). Pure peptide was concentrated in Amicon concentrators with cut‐off of 3 kDa (> 95% retention). […]

Sequence: DAVFDIITD [FYCO1, LIR peptide 1277–1285; in b48 the protein]
- subfamily specificity [1]: LC3A‐specific adaptor

Sequence: DDFWVRVAP [KTBD6, LIR peptide 665–673]
- preference GABARAP versus LC3B ([2]; listed as KBTBD6): strong preference for GABARAP versus LC3B
- preference GABARAP versus LC3B ([2]; listed as KBTDB6): clear specificity towards GABARAP versus LC3B

Sequence: DDSYEVLDL [FUNDC1, LIR peptide 152–160 (so in the source)]
- preference GABARAP versus LC3B [2]: preferentially interacted with the LC3 group; also recorded: only LC3‐selective LIR; also recorded: only LC3B‐specific LIR

Sequence: EDEAVNAQY [W635A/V638A, reference compound]
- interaction with all mATG8s, alanine scan [3]: completely disrupted all LIR–mATG8 interactions

Sequence: EDEWCFLQY
- interaction with LC3B, core motif combinations [4]: increased the interaction of PLEKHM1‐LIR with LC3B

Sequence: EDEWCILQY [WCIL]
- Kd [5]: 300 nM

Sequence: EDEWCVLQY
- interaction with LC3B, core motif combinations [4]: increased the interaction of PLEKHM1‐LIR with LC3B

Sequence: EDSFVEIRM [OPTN, LIR peptide 175–183]
- subfamily preference after phosphorylation ([1]; TBK1 phosphorylation at S177): switches to LC3B
- subfamily preference ([1]; unmodified state): clearly shows preference for GABARAP
